# Assay results taken from patent US20110104121A1, “Female Reproductive Tract and Anal Prophylaxes” (priority 2008, published 2011).
# Legend:
# [1] = tested on: Monocytes-derived Dendritic cells (MDDCs); assay: surface receptor expression on monocyte-derived dendritic cells, flow cytometry; assay type: cell-based, human
# Protocol: Materials and Methods. Uterine epithelial cell line (ECC-1) was cultured according to established methods to establish cellular polarity with apical and basolateral compartments (Schaefer, et al. (2004) Immunology 112:428-436). The formation of tight junctions by the epithelial cell monolayer was routinely monitored by measurement of transepithelial resistance (TER) (Richardson, et al. (1995) Biol. Reprod. 53:488-498). […] The pooled media was centrifuged for 5 minutes at 10,000 g and stored at −80° C. for use in subsequent studies.
# Peripheral blood mononuclear cells (PBMC) were obtained from residues of platelet pheresis according to known methods (Dietz, et al. (2006) Transfusion 46:2083-2089). Monocytes were subsequently enriched with Rosette Sep reagent (StemCell, Vancouver, BC). Blood specimens were from healthy adult males. Monocytes-derived Dendritic cells (MDDCs) were in vitro generated with GM-CSF (50 ng/ml) and IL-4 (50 ng/ml) (PeproTech Inc, Rocky Hill, N.J.) (Sallusto Lanzavecchia (1994) J. Exp. Med. 179:1109-1118). MDDCs were differentiated for 7 days in the presence or absence of 24-hour conditioned medium (1:1 dilution) obtained from ECC-1. In some experiments TGF-beta receptor 1 blocker, SB431542 (10 μM; Tocris Cookson, Inc., St. Louis, Mo.) (Eriksson, et al. (2006) Am. J. Reprod. Immunol. 56:321-328; Shen, et al. (2007) Clin. Exp. Immunol. 149(1):155-61) was simultaneously added with ECC-1 CM for the entire duration of the differentiation. As positive control for TGF-beta effects on MDDCs, experimental conditions were included in which MDDCs were differentiated with recombinant human TGF-beta1 at three different concentrations (0.1, 1 and 10 ng/mL) in the presence or absence of SB431542. Following 7 days of culture, cells were harvested, washed and subsequently used for flow cytometry analyses.
# Following six days of in vitro differentiation, surface staining of MDDCs was performed with the following fluorochrome-labeled monoclonal antibodies: CD1a (HI149), CD14 (61D3), from Ebioscience (San Diego, Calif.); and CD163 (215927), CCR5 (45531), CXCR4 (12G5), DC-SIGN (120507) from R&D Systems (Minneapolis, Minn.). Matched isotype controls for the antibodies were used to control for non-specific binding. Following antibody staining, cells were washed with staining buffer and fixed with 2% methanol-free paraformaldehyde in 1×PBS (2% PFA), followed by analysis with a Becton Dickinson FACS CALIBUR (San Jose, Calif.). The acquired FACS data were analyzed by CELL QUEST (BD Biosciences).
# Statistical analysis was performed using two-way analysis of variance (ANOVA) ([…] Prism Version 5.0; […] Software Inc., San Diego, Calif.). A value of P<0.05 was considered significant.
# [2] = tested on: uterine stromal fibroblasts; assay: HGF secretion by uterine stromal fibroblasts, ELISA; assay type: cell-based, human
# Protocol: (§1) Materials and Methods. FRT mucosal tissue was obtained following surgery from women who underwent hysterectomies. Tissues used in this study were distal to the sites of pathology and were determined to be unaffected by disease upon inspection by a trained pathologist. Tissues were transported from Pathology and procedures to isolate stromal fibroblasts began within 2 hours of surgery.
# Tissues from the Fallopian tube, uterus, cervix, and ectocervix were dispersed into epithelial and stromal cell fractions by enzymatic digestion (Fahey, et al. (1998) Immunol. Invest. 27:167-180; Meter, et al. (2005) Fertil. Steril. 84:191-201). Briefly, tissues were minced under sterile conditions into 1-2 mm fragments and then digested at 37° C. for 1 hour using a “PHC” enzyme mixture that contained final concentrations of 3.4 mg/ml pancreatin (Gibco Life Technologies, Rockville, Md.), 0.1 mg/ml hyaluronidase (Worthington Biochemical Corporation, Freehold, N.J.), 1.6 mg/ml collagenase (Worthington) and 2 mg/ml D-glucose (Sigma, St Louis, Mo.) in Hank's balanced salt solution (Gibco, Invitrogen). This procedure was chosen to maximize digestion of the extracellular matrix, as verified by microscopy and by hematoxylin and eosin staining of frozen sections after digestion, while minimizing digestion of cell surface antigens as determined by flow cytometry. After incubating in this enzyme cocktail, cells and tissue fragments were collected, washed with complete media consisting of DMEM/F-12 without phenol red (Gibco) supplemented with 10% heat-inactivated fetal calf serum (Hyclone, Logan, Utah), 2 mM fresh L-glutamine, 25 mM HEPES, […] primocin (InvivoGen, San Diego, Calif.) and separated from tissue aggregates by sedimentation for 5 minutes. Medium containing predominantly single cells and small epithelial cell glands were removed and dispersed through a 250 μm nylon mesh screen (Small Parts, Miami Lake, Fla.). […]
# (§2) Stromal cell fractions were washed, resuspended in complete media, and cultured in T75 flasks. […] When confluent, the cells in the flask were counted and sub-cultured into 24 well culture plates (Fisher Scientific, Pittsburgh, Pa.). […]
# Once the cells reached confluence, they were cultured in complete media with 10% stripped FBS (Hyclone). […] In related experiments, when cell proliferation was analyzed, harvested from culture wells and counted by Coulter Counter. […] Viability of the cultures was determined using trypan blue dye exclusion and manual counting of live vs. dead cells on a hemocytometer. […]
# [3] = tested on: ectocervix stromal fibroblasts; assay: HGF secretion by ectocervix stromal fibroblasts, ELISA; assay type: cell-based, human; conditions: estradiol
# Protocol: as §1
# (§3) Tissues from the Fallopian tube, uterus, cervix, and ectocervix were dispersed into epithelial and stromal cell fractions by enzymatic digestion (Fahey, et al. (1998) Immunol. Invest. 27:167-180; Meter, et al. (2005) Fertil. Steril. 84:191-201). […] This procedure was chosen to maximize digestion of the extracellular matrix, as verified by microscopy and by hematoxylin and eosin staining of frozen sections after digestion, while minimizing digestion of cell surface antigens as determined by flow cytometry. […]
# as §2
# (§4) Once the cells reached confluence, they were cultured in complete media with 10% stripped FBS (Hyclone). […] In related experiments, when cell proliferation was analyzed, harvested from culture wells and counted by Coulter Counter. […]
# [4] = tested on: cervix stromal fibroblasts; assay: HGF secretion by cervix stromal fibroblasts, ELISA; assay type: cell-based, human; conditions: estradiol
# Protocol: as §1, §3, §2, §4
# [5] = tested on: primary uterine epithelial cells; assay: MIP3 alpha secretion by primary uterine epithelial cells, ELISA; assay type: cell-based, mice; conditions: 20 hours, 37° C., vs media control
# Protocol: FIG. 1 depicts levels of MIP3 alpha secretion by primary uterine epithelial cells at 20 hours after exposure to estrogen, ICI […] or the SERMs indicated. P value is comparison to media control.
# Indeed, FIG. 1 summarizes the effects of estradiol (estrogen) and four known SERMS on the secretion of MIP3 alpha (aka CCL20), a known potent endogenous antimicrobial peptide, by primary uterine epithelial cells in culture. Epithelial cells were isolated from the uteri of intact mice by enzymatic digestion prior to incubation at 37° C. in the presence or absence of known SERMS for 20 hours. Following incubation in 96-well plates, media was collected and assayed by ELISA for MIP3 alpha.
# female macrophages = assay: LPS-induced TNFalpha secretion by female macrophages; assay type: cell-based
# [6] = tested on: primary uterine epithelial cells; assay: mouse KC (IL8) secretion from primary uterine epithelial cells; assay type: cell-based; conditions: 24-hour treatment
# uterine cells = assay: relative mRNA expression of SLPI and defensins in uterine cells; assay type: cell-based; conditions: for relative uterine alpha defensin 2 expression: saline control ~0.2×10^5; for relative beta defensin 4 mRNA expression in uterine cells: saline control ~0.4×10^5
# Protocol: (§5) The analysis of SERM activity is carried out using fresh hysterectomy tissues, wherein epithelial cells, neutrophils, NK cells and macrophage/dendritic cells (MAC/DC), which are known to be responsive in culture to sex hormones, are recovered. Using conventional assays, SERMs (e.g., Tamoxifen, bazedoxifene acetate, lasofoxifene and raloxifene, etc) are analyzed for their ability to regulate immunological endpoints which have been identified as optimal for protection against HIV. […] Similarly, ICI 182,780 increased relative vaginal SLPI mRNA levels by 26-fold over saline controls. Furthermore, ICI 182,780, tamoxifen, and Y134 increased relative uterine alpha defensin 2 expression (˜3×10^5, ˜4×10^5, and −1.2×10^6, respectively) compared to ˜0.2×10^5 in the saline control. ICI 182,780, Y134, and PHTPP were also found to increase relative vaginal alpha defensin 2 expression (˜2.4×10^5, ˜4×10^5, and ˜1.6×10^5, respectively) compared to −7.5×10^4 in the saline control.
# vaginal cells = assay: relative mRNA expression of SLPI and defensins in vaginal cells; assay type: cell-based; conditions: for relative vaginal alpha defensin 2 expression: saline control printed −7.5×10^4; for relative mRNA expression of beta defensin 1 in vaginal cells: saline control ~1.1×10^8
# Protocol: as §5
# CCR5-tropic HIV = conditions: in vitro; read-out: 50% inhibitory concentration, CCR5-tropic HIV infectivity; cited from earlier work
# [7] = Table 4, control vehicle, N = 3
# [8] = Table 5, control vehicle, N = 3
Molecule,MIP3 alpha secretion [5],TNFalpha (% of Control) (female macrophages; [7]),TNFalpha (% of Control) (female macrophages; [8]),secretion of mouse KC (IL8) [6],increase in relative uterine SLPI mRNA levels over saline controls (uterine cells),relative uterine alpha defensin 2 expression (uterine cells),relative mRNA expression of beta defensin 2 in vaginal cells (vaginal cells),relative vaginal alpha defensin 2 expression (vaginal cells),relative mRNA expression of beta defensin 1 in vaginal cells (vaginal cells),relative beta defensin 4 mRNA expression in uterine cells (uterine cells),further results
"C[C@]12CC[C@@H]3c4ccc(O)cc4CC[C@H]3[C@@H]1CC[C@@H]2O [E2, 17β-estradiol]",no effect,73.96 ± 3.00 % of Control,73.96 ± 3.00 % of Control,–,–,–,–,–,–,–,"DC-SIGN expression on immature DCs [1]: increases; uterine stromal fibroblast HGF secretion ([2]; 10^−7 M or 10^−8 M estradiol, within 48 hours): significantly increased; estradiol response of HGF at 24 hours, responding patients ([2]; 24 hours after addition of estradiol): two out of five patients; cell numbers, control vs estradiol-treated wells ([2]; counted at 48-hour intervals): did not differ; HGF secretion, six days vs two days of exposure ([2]; estradiol 2, 4, 6 days, CM collected at 48 hour intervals): three times more HGF; secretion of HGF from ectocervix stromal fibroblasts [3]: no effect; HGF secretion by cervix stromal fibroblasts [4]: did not increase; TNFalpha (% of Control) (female macrophages; E2 0.001 nM, control no E2, N = 4): 98.35 ± 3.19 % of Control; TNFalpha (% of Control) (female macrophages; E2 0.01 nM, control no E2, N = 4): 97.72 ± 6.89 % of Control; TNFalpha (% of Control) (female macrophages; E2 0.1 nM, control no E2, N = 4): 94.68 ± 11.62 % of Control"
"C[C@]12CC[C@@H]3c4ccc(O)cc4C[C@@H](CCCCCCCCC[S+]([O-])CCCC(F)(F)C(F)(F)F)[C@H]3[C@@H]1CC[C@@H]2O (stereo partly shown) [ICI 182,780]",significantly increased,111.87 ± 15.68 % of Control,–,significantly increased,~3×10^5,~3×10^5,not significantly affected,~2.4×10^5,~2.15×10^8,–,increase in relative vaginal SLPI mRNA levels over saline controls (vaginal cells): 26 fold
Oc1ccc(-c2c(-c3ccccc3)nn3c(C(F)(F)F)cc(C(F)(F)F)nc23)cc1 [PHTPP],marginal effect,–,79.96 ± 6.43 % of Control,marginal effect,~8×10^5,–,not significantly affected,~1.6×10^5,–,~8×10^5,relative mRNA expression of beta defensin 2 in uterine cells (uterine cells; saline control ~1×10^5): ~1.55×10^8; relative mRNA expression of beta defensin 1 in uterine cells (uterine cells; saline control ~1.1×10^6): ~1.05×10^8
CC/C(=C(\c1ccccc1)c1ccc(OCCN(C)C)cc1)c1ccccc1 [tamoxifen],marginal effect,–,–,marginal effect,~2.5×10^5,~4×10^5,not significantly affected,–,~1.75×10^8,~6×10^5,relative beta defensin 4 mRNA expression in vaginal cells (vaginal cells; saline control ~1×10^7): ~2.1×10^8
"Lactobacillus-derived CV-N: HIV inhibitor Cyanovirin-N produced by engineered vaginal Lactobacillus (protein, UniProt P81180 1-101, looked up, produced in engineered Lactobacillus) Cyanovirin-N: LGKFSQTCYNSAIQGSVLTSTCERTNGGYNTSSIDLNSVIENVDGSLKWQPSNFIETCRNTQLAGSSELAAECKTRAQQFVSTKINLDDHIANIDGTLKYE",–,–,–,–,–,–,–,–,–,–,IC50 (CCR5-tropic HIV): 0.3 nM
